Measured values: patent US7354927B2, “6H-[1]benzopyrano[4,3-b]quinolines and their use as estrogenic agents” (Wyeth, priority 2004, dated 2008)

Columns and labels:
[1] = target: T1, human ERβ (Homo sapiens, UniProt Q92731); test: Competition with [3H]-17β-estradiol for binding to the ERβ ligand binding domain; conditions: for IC50: E. coli lysate expressing human ERβ LBD, 2 nM [3H]-17β-estradiol, 5-15 hours at room temperature
T1 construct: made in house; host or cells: E. coli (crude lysate)
Method: (§1) Representative examples of the invention were evaluated for their ability to compete with 17β-estradiol for both ERα and ERβ. The test procedure used allows one to determine whether a particular compound binds to the estrogen receptor (and is therefore “estrogenic”) and whether there is selectivity for ERα or ERβ. […] The IC50 is defined as the concentration of compound that decreases total 17β-estradiol binding by 50%. The procedure used is briefly described. A crude lysate of E. coil expressing the estrogen receptor ligand binding domains (D, E, and F) of human ERα or ERβ was prepared. Both receptors and compounds were diluted in 1× Dulbecco's phosphate buffered saline (DPBS) supplemented with 1 mM ethylenediamine tetraacetic acid (EDTA). Using a high binding masked microtiter plate, 100 uL of receptor (1 uG/well) was combined with 2 nM [^3H]-17β-estradiol and various concentrations of compound. After between 5 and 15 hours at room temperature, the plates were washed with DPBS/1 mM EDTA and bound radioactivity determined by liquid scintillation counting.

[2] = target: T2, human ERα (Homo sapiens, UniProt P03372); test: Competition with [3H]-17β-estradiol for binding to the ERα ligand binding domain; conditions: E. coli lysate expressing human ERα LBD; 2 nM [3H]-17β-estradiol; 5-15 hours at room temperature
T2 construct: made in house; host or cells: E. coli (crude lysate)
T2 sequence (P03372 311-547 limits assumed): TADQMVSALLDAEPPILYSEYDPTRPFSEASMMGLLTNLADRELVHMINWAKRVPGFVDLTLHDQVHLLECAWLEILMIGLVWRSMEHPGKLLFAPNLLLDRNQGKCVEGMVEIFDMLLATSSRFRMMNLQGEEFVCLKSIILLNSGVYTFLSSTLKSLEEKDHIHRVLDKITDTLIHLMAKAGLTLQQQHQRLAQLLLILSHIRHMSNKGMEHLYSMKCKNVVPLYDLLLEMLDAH
Method: as §1

T1 sequence (Q92731 264-498 limits assumed): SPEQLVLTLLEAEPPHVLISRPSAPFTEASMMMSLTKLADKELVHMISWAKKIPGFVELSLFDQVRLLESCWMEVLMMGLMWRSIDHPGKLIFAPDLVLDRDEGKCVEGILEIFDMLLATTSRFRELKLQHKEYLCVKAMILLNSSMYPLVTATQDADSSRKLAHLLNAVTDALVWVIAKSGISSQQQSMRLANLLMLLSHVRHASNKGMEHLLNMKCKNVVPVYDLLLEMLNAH

Row | IC50 [1] | α/β receptor selectivity (ratio of ERα IC50 to ERβ IC50) [1] | IC50 [2] | melting point | Structure (SMILES)
1 | 0.137 µM | 44 | 6.09 µM | 175 to 177 °C (dec.) | Oc1ccc2c(c1)OCc1c-2nc2ccc(O)cc2c1-c1ccc(C(F)(F)F)cc1 [Cpd 16, 3,9-DIHYDROXY-7-[4-(TRIFLUOROMETHYL)PHENYL]-6H-CHROMENO[4,3-b]QUINOLINE]
2 | 0.13 µM | 4 | 0.505 µM | 162 to 165 °C (dec.) | Oc1ccc2c(c1)OCc1c-2nc2ccc(O)cc2c1-c1cccc(Cl)c1 [Cpd 17, 7-(3-CHLOROPHENYL)-3,9-DIHYDROXY-6H-CHROMENO[4,3-b]QUINOLINE]
3 | 0.0056 µM | 7 | 0.04 µM | – | N#Cc1c2c(nc3ccc(O)cc13)-c1ccc(O)cc1OC2 [Cpd 12, 7-CYANO-3,9-DIHYDROXY-6H-CHROMENO[4,3-b]QUINOLINE]
4 | 0.16 µM | 19 | 3.09 µM | 215 to 218 °C (dec.) | Oc1ccc2c(c1)OCc1c-2nc2ccc(O)cc2c1-c1ccc(Cl)cc1 [Cpd 13, 7-(4-CHLOROPHENYL)-3,9-DIHYDROXY-6H-CHROMENO[4,3-b]QUINOLINE]
5 | – | – | – | 196 to 197 °C | COc1ccc2c(c1)OCc1c-2nc2ccc(OC)cc2c1Br [Cpd 5, 7-BROMO-3,9-DIMETHOXY-6H-CHROMENO[4,3-b]QUINOLINE]
6 | 0.0033 µM | 27 | 0.088 µM | 235 °C (dec.) | Oc1ccc2c(c1)OCc1c-2nc2ccc(O)cc2c1Cl [Cpd 6, 7-CHLORO-3,9-DIHYDROXY-6H-CHROMENO[4,3-b]QUINOLINE]
7 | 0.005 µM | 13 | 0.066 µM | 145 °C (dec.) | CCc1c2c(nc3ccc(O)cc13)-c1ccc(O)cc1OC2 [Cpd 11, 3,9-DIHYDROXY-7-ETHYL-6H-CHROMENO[4,3-b]QUINOLINE]
8 | 0.15 µM | 8 | 1.13 µM | 275 °C (dec.) | N#Cc1cccc(-c2c3c(nc4ccc(O)cc24)-c2ccc(O)cc2OC3)c1 [Cpd 19, 7-(3-CYANOPHENYL)-3,9-DIHYDROXY-6H-CHROMENO[4,3-b]QUINOLINE]
9 | 0.031 µM | 18 | 0.548 µM | 160 °C (dec.) | C=Cc1c2c(nc3ccc(O)cc13)-c1ccc(O)cc1OC2 [Cpd 8, 3,9-DIHYDROXY-7-VINYL-6H-CHROMENO[4,3-b]QUINOLINE]
10 | 0.0036 µM | 18 | 0.063 µM | 240 °C (dec.) | Oc1ccc2c(c1)OCc1c-2nc2ccc(O)cc2c1Br [Cpd 7, 7-BROMO-3,9-DIHYDROXY-6H-CHROMENO[4,3-b]QUINOLINE]
11 | 0.086 µM | 10 | 0.82 µM | 155 to 158 °C (dec.) | COc1cccc(-c2c3c(nc4ccc(O)cc24)-c2ccc(O)cc2OC3)c1 [Cpd 18, 3,9-DIHYDROXY-7-(3-METHOXYPHENYL)-6H-CHROMENO[4,3-b]QUINOLINE]
12 | 0.082 µM | 17 | 1.42 µM | 295 °C (dec.) | N#Cc1ccc(-c2c3c(nc4ccc(O)cc24)-c2ccc(O)cc2OC3)cc1 [Cpd 14, 7-(4-CYANOPHENYL)-3,9-DIHYDROXY-6H-CHROMENO[4,3-b]QUINOLINE]
13 | – | – | – | 190 to 191 °C | COc1ccc2c(c1)OCc1c-2nc2ccc(OC)cc2c1Cl [Cpd 4, 7-CHLORO-3,9-DIMETHOXY-6H-CHROMENO[4,3-b]QUINOLINE]
14 | 0.061 µM | 6 | 0.357 µM | 195 °C (dec.) | COc1ccc(-c2c3c(nc4ccc(O)cc24)-c2ccc(O)cc2OC3)cc1 [Cpd 15, 3,9-DIHYDROXY-7-(4-METHOXYPHENYL)-6H-CHROMENO[4,3-b]QUINOLINE]
15 | 0.037 µM | 3 | 0.131 µM | 220 °C (dec.) | C#Cc1c2c(nc3ccc(O)cc13)-c1ccc(O)cc1OC2 [Cpd 10, 3,9-DIHYDROXY-7-ETHYNYL-6H-CHROMENO[4,3-b]QUINOLINE]

Row | Structure (SMILES) | IC50 [1] | α/β receptor selectivity (ratio of ERα IC50 to ERβ IC50) [1] | IC50 [2] | melting point
16 | C[Si](C)(C)C#Cc1c2c(nc3ccc(O)cc13)-c1ccc(O)cc1OC2 [Cpd 9, 3,9-DIHYDROXY-7-[(TRIMETHYLSILYL)ETHYNYL]-6H-CHROMENO[4,3-b]QUINOLINE] | 0.225 µM | 0.8 | 0.169 µM | 160 °C (dec.)
